Data reported in PubChem BioAssay (NCI).
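Where inhibition never reached the appropriate level, the endpoint shown equals the highest concentration tested. Otherwise, values were interpolated linearly from a five-concentration, 48-hour dose response in 96-well plates. TGI is the concentration that stops growth completely.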 Where a SMILES comes first, the peptide text is derived from it. [ ]: non-standard residue; d: D form. The star is where a group is joined. Tyr(3-Br) = N[C@@H](Cc1ccc(O)c(Br)c1)C(=O)O; Boc = CC(C)(C)OC(=O)*

How the values were obtained:
Assay in all cases: DTP human tumour cell line panel, 48 h
HS 578T breast = tested on: HS 578T breast
MOLT-4 leukemia = tested on: MOLT-4 leukemia
HT29 colon = tested on: HT29 colon
IGROV1 ovarian = tested on: IGROV1 ovarian
A498 renal = tested on: A498 renal
MCF7 breast = tested on: MCF7 breast
UACC-257 melanoma = tested on: UACC-257 melanoma
SF-539 CNS = tested on: SF-539 CNS
NCI-H460 lung = tested on: NCI-H460 lung
SK-MEL-5 melanoma = tested on: SK-MEL-5 melanoma
SW-620 colon = tested on: SW-620 colon
DU-145 prostate = tested on: DU-145 prostate
U251 CNS = tested on: U251 CNS
MDA-N = tested on: MDA-N
MALME-3M melanoma = tested on: MALME-3M melanoma
MDA-MB-435 = tested on: MDA-MB-435
NCI-H522 lung = tested on: NCI-H522 lung
ACHN renal = tested on: ACHN renal
UO-31 renal = tested on: UO-31 renal

SMILES | TGI (HS 578T breast) [µM] | TGI (MOLT-4 leukemia) [µM] | TGI (HT29 colon) [µM] | TGI (IGROV1 ovarian) [µM] | TGI (A498 renal) [µM] | TGI (MCF7 breast) [µM] | TGI (UACC-257 melanoma) [µM] | TGI (SF-539 CNS) [µM] | TGI (NCI-H460 lung) [µM] | TGI (SK-MEL-5 melanoma) [µM] | TGI (SW-620 colon) [µM] | TGI (DU-145 prostate) [µM] | TGI (U251 CNS) [µM] | TGI (MDA-N) [µM] | TGI (MALME-3M melanoma) [µM] | TGI (MDA-MB-435) [µM] | TGI (NCI-H522 lung) [µM] | TGI (ACHN renal) [µM] | TGI (UO-31 renal) [µM]
C/C1=C/C(C)CC(C)OC(=O)C(C)NC(=O)C(Cc2ccc(O)c(I)c2)N(C)C(=O)C(C)NC(=O)C(C)C1 (centres undefined) | < 0.0392 | 23.7 | > 40.7 | < 0.01 | < 0.0137 | > 100 | 8.36 | 1.61 | 12.8 | 11.7 | > 100 | > 58.1 | 0.892 | 30.7 | 3.45 | 16 | 0.649 |  | 
CCOc1ccc(NC(=O)/C(=N\NC(C)(C)C)C2C(=O)Nc3ccccc3S2=O)cc1 (centres undefined) | > 100 | > 100 | > 100 | > 100 | > 100 | > 100 | > 100 | > 100 | > 100 | > 100 | > 100 | > 100 | > 100 | > 100 | > 100 | > 100 | > 100 | > 100 | > 100
CC(C)(C)OC(=O)N(O)CCCn1cnc2c(N)ncnc21 | > 100 | > 100 | > 100 | > 100 | > 100 | > 100 | > 100 | > 100 | > 100 | > 100 | > 100 | > 100 | > 100 | > 100 | > 100 | > 100 | > 100 | > 100 | > 100
COC(=O)[C@H](Cc1ccc(O)c(Br)c1)NC(=O)[C@H](Cc1ccc(O)cc1)NC(=O)OC(C)(C)C (Boc-Tyr-[Tyr(3-Br)]-OMe) | > 100 | > 100 | > 100 | > 100 | > 100 | > 100 | > 100 | 94.9 | 37.7 |  | > 100 | > 100 |  | > 100 | 57.2 | 53.5 |  | > 100 | > 100
O=C(Nc1c(C(F)(F)F)cc(-c2ccccc2)[nH]c1=O)N1CCOCC1 | > 100 | > 100 | > 100 | > 100 | > 100 | > 100 | > 100 |  | > 100 | > 100 | > 100 | > 100 | > 100 | > 100 | > 100 | > 100 | > 100 | > 100 | > 100
CC1(C)CC(=O)C2=C(C1)NC1=C(C(=O)CC(C)(C)C1)C2c1ccc([N+](=O)[O-])cc1 | > 100 | > 100 | > 100 | > 100 | > 100 | > 100 | > 100 | > 100 | > 100 | > 100 | > 100 | > 100 | > 100 | > 100 |  | > 100 | > 100 | > 100 | > 100
COc1cc(C=C2C(C)=NN(c3cccc(Cl)c3)C23C(Cl)C(=O)N3c2nc3ccccc3s2)ccc1O (centres undefined) | 43 | 21.1 | 26.7 | 48.4 | 35.2 | > 100 | 73.1 | > 100 | 66.1 | 36.9 | 26 | 48.7 | 35 | 74.7 |  | 35.1 | 12.5 | 39.1 | 55
COc1cc(C)cc2c1c(=O)c1ccccc1n2C | 78.9 | > 100 | > 100 | > 100 | 89.2 | > 100 | > 100 | 38.4 | > 100 | 51.3 | > 100 | > 100 | 96.1 | > 100 | > 100 | > 100 | > 100 | > 100 | 
N#CC(=C1CCCCC1)c1nc2ccccc2o1 | > 100 | > 100 | > 100 | > 100 | > 100 | > 100 | > 100 | 64.4 | > 100 | > 100 |  | > 100 | > 100 | > 100 | > 100 | > 100 | 60.6 | > 100 | > 100
C/C=C1/CN2CCC3(O)c4ccccc4N4C=C(C(=O)OC)C1CC2C43O (centres undefined) | > 100 | > 100 | > 100 | > 100 |  | > 100 | > 100 | > 100 | > 100 | > 100 | > 100 | > 100 | > 100 | > 100 | > 100 | > 100 | > 100 | > 100 | > 100
Cc1cc(S(=O)(=O)/N=C(\[N-]S(=O)(=O)c2ccc(Cl)cc2)[n+]2ccc(N(C)C)cc2)c(S)cc1Cl | > 100 | 96.5 | > 100 | > 100 | 99.2 | > 100 | > 100 | > 100 | > 100 | > 100 | > 100 | > 100 | > 100 | > 100 |  | > 100 | > 100 | > 100 | > 100
c1ccc(P(CCP(c2ccccn2)c2ccccn2)c2ccccc2)cc1 | > 100 | > 100 | > 100 |  | > 100 | > 100 | > 100 | > 100 | > 84.9 | > 100 | > 100 | > 100 | > 100 | > 100 | > 100 | > 100 |  | > 100 | > 100
